Reference: ChEMBL document CHEMBL6134884, “Identification of JNJ-61803534, a RORγt Inverse Agonist for the Treatment of Psoriasis” (J Med Chem, 2025)

Tests used:
hERG = hERG (Homo sapiens, UniProt Q12809); assay: Inhibition of hERG at 10 uM by Q-patch clamp method relative to control; type: toxicity
[1] = Aqueous solubility of the compound at pH 2; type: physicochemical; conditions: aqueous solution
[2] = Oral bioavailability in male Sprague-Dawley rat at 5 mg/kg measured 24 hrs post dose by LC-MS/MS analysis; type: ADME, organism-based; conditions: in vivo
[3] = molecular target: T1, Nuclear receptor subfamily 1 group I member 3 (Homo sapiens, UniProt Q14994); assay: Agonist activity at CAR (unknown origin) up to 1.5 uM by mammalian 1-hybrid assay
T1 sequence (Q14994 whole entry): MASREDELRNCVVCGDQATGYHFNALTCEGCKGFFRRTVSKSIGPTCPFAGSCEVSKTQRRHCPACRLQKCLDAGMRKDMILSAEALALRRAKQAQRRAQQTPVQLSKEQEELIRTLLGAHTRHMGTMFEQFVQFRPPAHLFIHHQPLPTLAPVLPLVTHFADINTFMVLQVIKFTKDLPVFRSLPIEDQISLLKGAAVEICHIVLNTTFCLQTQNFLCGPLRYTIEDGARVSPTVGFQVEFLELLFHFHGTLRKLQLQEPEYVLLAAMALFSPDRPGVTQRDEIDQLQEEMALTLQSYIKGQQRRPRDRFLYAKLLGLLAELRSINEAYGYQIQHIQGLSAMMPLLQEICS

[4] = molecular target: T2, Nuclear receptor subfamily 1 group I member 2 (Homo sapiens, UniProt O75469); assay: Activation of human PXR at 1 uM relative to control; type: toxicity
T2 sequence (O75469 whole entry): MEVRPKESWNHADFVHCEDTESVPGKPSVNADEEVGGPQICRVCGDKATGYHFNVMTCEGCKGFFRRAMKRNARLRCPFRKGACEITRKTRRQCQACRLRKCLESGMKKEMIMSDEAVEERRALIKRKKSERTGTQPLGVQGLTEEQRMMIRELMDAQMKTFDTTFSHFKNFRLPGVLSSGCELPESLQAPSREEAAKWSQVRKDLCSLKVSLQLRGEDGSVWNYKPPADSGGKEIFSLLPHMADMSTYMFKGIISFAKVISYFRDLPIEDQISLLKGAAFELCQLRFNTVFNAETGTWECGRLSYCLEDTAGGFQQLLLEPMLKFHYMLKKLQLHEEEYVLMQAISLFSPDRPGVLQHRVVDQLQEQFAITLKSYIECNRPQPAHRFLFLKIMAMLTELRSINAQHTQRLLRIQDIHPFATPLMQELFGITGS

[5] = Volume of distribution at steady state in male overnight fasted Beagle dog at 5 mg/kg, po or 1 mg/kg, iv measured 24 hrs post dose by LC-MS/MS analysis; type: ADME, organism-based, Canis lupus familiaris; conditions: in vivo
[6] = molecular target: T3, Nuclear receptor ROR-gamma (Mus musculus, UniProt P51450); assay: Inverse agonist activity at RORgammat in mouse whole blood assessed as IL-17A production incubated for 1 hrs by ELISA analysis
T3 sequence (P51450 whole entry): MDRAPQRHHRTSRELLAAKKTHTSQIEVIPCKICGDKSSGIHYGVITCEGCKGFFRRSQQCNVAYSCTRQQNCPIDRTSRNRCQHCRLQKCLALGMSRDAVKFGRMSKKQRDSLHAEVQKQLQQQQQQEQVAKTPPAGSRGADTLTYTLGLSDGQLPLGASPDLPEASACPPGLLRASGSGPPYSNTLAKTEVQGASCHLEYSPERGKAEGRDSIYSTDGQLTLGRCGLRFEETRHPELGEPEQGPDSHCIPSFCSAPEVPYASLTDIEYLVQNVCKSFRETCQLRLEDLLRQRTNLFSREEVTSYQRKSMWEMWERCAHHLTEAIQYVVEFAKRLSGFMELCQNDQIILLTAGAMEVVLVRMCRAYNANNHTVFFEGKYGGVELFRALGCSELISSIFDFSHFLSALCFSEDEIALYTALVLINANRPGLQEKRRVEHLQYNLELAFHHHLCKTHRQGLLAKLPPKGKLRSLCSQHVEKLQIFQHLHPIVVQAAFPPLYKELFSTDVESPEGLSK

Cytochrome P450 2D6 = Cytochrome P450 2D6 (Homo sapiens, UniProt P10635); assay: Inhibition of human CYP2D6; type: ADME
Cytochrome P450 2D6, sequence (P10635 whole entry): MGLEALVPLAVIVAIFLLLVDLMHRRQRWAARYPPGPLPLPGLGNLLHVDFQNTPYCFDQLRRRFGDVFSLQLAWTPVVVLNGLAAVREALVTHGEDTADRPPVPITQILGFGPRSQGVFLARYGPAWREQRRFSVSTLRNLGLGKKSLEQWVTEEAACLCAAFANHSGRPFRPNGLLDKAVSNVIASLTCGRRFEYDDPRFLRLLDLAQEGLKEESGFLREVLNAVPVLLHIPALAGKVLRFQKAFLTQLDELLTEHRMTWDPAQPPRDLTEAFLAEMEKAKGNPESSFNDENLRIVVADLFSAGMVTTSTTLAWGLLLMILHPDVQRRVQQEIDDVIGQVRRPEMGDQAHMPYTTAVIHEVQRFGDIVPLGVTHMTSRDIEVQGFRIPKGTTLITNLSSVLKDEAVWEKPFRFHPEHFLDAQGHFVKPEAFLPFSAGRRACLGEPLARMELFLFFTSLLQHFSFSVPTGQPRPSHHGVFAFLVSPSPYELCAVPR

PXR [7] = molecular target: T4, PXR (Homo sapiens, UniProt O75469); assay: Activation of human PXR at 10 uM relative to control; type: toxicity; conditions: read-out: Activity
T4 sequence (O75469 whole entry): T2 sequence (O75469 whole entry)

PXR [8] = molecular target: T4, PXR; assay: Activation of human PXR at 5 uM relative to control; type: toxicity; conditions: read-out: Activity
Cytochrome P450 2C8 = molecular target: T5, Cytochrome P450 2C8 (Homo sapiens, UniProt P10632); assay: Inhibition of human CYP2C8; type: ADME
T5 sequence (P10632 whole entry): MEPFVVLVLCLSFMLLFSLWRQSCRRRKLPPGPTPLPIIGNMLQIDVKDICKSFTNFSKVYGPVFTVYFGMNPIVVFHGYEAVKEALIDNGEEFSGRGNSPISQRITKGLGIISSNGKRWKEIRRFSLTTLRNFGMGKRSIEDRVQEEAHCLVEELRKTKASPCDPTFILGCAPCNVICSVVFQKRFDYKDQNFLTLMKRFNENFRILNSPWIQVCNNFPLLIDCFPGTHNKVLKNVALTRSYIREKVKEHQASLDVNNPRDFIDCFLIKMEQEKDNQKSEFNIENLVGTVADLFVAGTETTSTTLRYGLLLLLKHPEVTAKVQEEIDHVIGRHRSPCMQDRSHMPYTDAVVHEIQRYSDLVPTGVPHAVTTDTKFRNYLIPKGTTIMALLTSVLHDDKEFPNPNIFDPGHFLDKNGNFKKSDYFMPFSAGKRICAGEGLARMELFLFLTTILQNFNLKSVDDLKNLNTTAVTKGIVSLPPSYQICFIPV

[9] = Metabolic stability in rat liver microsomes assessed as half life; type: ADME, Microsome
[10] = Metabolic stability in human liver microsomes assessed as half life; type: ADME, Microsome
Cytochrome P450 3A4 [11] = molecular target: T6, Cytochrome P450 3A4 (Homo sapiens, UniProt P08684); assay: Time dependent inhibition of CYP3A4 (unknown origin); type: ADME
T6 sequence (P08684 whole entry): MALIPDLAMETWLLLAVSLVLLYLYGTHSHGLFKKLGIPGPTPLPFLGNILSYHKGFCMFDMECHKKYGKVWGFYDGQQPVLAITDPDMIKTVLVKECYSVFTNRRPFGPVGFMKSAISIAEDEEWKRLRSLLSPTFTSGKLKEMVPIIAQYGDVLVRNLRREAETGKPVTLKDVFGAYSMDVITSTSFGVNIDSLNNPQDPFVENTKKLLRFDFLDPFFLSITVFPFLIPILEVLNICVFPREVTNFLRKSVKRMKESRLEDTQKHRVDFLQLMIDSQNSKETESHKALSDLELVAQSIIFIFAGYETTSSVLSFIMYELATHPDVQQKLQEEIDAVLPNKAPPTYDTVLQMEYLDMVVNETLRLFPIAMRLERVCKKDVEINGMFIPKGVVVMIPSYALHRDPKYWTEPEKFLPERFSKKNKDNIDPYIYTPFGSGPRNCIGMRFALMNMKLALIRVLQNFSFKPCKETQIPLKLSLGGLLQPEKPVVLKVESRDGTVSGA

[12] = Plasma protein binding in rat assessed as unbound fraction; type: ADME, cell-free
[13] = Plasma protein binding in human assessed as unbound fraction; type: ADME, cell-free
[14] = Solubility of compound in FaSSIF; type: physicochemical
Cytochrome P450 2C19 = Cytochrome P450 2C19 (Homo sapiens, UniProt P33261); assay: Inhibition of human CYP2C19; type: ADME
Cytochrome P450 2C19, sequence (P33261 whole entry): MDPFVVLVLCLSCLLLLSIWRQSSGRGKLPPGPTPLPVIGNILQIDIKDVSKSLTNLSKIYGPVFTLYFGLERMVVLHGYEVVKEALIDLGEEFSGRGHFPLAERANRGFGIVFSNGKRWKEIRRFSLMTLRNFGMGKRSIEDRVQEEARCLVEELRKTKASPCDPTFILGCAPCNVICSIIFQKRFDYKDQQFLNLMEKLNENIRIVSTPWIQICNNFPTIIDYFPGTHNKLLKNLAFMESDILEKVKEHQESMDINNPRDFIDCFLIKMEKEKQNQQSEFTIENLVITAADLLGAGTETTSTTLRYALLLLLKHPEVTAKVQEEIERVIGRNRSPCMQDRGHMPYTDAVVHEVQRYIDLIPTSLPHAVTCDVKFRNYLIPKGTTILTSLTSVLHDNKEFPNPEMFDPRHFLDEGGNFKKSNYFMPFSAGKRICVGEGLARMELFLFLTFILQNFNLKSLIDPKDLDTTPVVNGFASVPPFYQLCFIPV

[15] = Inverse agonist activity at RORgammat in rat whole blood assessed as IL-17A production incubated for 1 hrs by ELISA analysis; type: tissue-based
[16] = Volume of distribution at steady state in male Sprague-Dawley rat at 5 mg/kg, po or 1 mg/kg, iv measured 24 hrs post dose by LC-MS/MS analysis; type: ADME, organism-based; conditions: in vivo
[17] = Aqueous solubility of the compound at pH 7; type: physicochemical; conditions: aqueous solution
[18] = Genotoxicity in Salmonella typhimurium by Ames II test; type: toxicity; conditions: salmonella enterica subsp. enterica serovar typhimurium
Cytochrome P450 2C9 = Cytochrome P450 2C9 (Homo sapiens, UniProt P11712); assay: Inhibition of human CYP2C9; type: ADME
Cytochrome P450 2C9, sequence (P11712 whole entry): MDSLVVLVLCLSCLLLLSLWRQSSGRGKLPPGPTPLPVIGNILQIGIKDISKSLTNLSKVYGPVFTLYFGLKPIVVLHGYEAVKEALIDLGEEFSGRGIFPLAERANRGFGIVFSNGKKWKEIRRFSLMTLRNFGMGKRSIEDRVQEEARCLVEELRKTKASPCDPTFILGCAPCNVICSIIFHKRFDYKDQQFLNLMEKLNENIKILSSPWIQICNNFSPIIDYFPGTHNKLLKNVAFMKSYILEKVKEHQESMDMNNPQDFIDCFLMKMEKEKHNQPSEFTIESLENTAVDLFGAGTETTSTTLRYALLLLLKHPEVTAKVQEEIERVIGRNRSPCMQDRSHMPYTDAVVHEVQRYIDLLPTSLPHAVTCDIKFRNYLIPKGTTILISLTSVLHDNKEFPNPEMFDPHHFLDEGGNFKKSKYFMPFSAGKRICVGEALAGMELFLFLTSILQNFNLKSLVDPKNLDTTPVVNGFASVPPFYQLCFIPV

[19] = Half life in male Sprague-Dawley rat at 5 mg/kg, po or 1 mg/kg, iv measured 24 hrs post dose by LC-MS/MS analysis; type: ADME, organism-based; conditions: in vivo
[20] = molecular target: Voltage-gated inwardly rectifying potassium channel KCNH2 (Homo sapiens, UniProt Q12809); assay: Inhibition of hERG by Q-patch clamp method; type: toxicity
Voltage-gated inwardly rectifying potassium channel KCNH2, sequence (Q12809 whole entry): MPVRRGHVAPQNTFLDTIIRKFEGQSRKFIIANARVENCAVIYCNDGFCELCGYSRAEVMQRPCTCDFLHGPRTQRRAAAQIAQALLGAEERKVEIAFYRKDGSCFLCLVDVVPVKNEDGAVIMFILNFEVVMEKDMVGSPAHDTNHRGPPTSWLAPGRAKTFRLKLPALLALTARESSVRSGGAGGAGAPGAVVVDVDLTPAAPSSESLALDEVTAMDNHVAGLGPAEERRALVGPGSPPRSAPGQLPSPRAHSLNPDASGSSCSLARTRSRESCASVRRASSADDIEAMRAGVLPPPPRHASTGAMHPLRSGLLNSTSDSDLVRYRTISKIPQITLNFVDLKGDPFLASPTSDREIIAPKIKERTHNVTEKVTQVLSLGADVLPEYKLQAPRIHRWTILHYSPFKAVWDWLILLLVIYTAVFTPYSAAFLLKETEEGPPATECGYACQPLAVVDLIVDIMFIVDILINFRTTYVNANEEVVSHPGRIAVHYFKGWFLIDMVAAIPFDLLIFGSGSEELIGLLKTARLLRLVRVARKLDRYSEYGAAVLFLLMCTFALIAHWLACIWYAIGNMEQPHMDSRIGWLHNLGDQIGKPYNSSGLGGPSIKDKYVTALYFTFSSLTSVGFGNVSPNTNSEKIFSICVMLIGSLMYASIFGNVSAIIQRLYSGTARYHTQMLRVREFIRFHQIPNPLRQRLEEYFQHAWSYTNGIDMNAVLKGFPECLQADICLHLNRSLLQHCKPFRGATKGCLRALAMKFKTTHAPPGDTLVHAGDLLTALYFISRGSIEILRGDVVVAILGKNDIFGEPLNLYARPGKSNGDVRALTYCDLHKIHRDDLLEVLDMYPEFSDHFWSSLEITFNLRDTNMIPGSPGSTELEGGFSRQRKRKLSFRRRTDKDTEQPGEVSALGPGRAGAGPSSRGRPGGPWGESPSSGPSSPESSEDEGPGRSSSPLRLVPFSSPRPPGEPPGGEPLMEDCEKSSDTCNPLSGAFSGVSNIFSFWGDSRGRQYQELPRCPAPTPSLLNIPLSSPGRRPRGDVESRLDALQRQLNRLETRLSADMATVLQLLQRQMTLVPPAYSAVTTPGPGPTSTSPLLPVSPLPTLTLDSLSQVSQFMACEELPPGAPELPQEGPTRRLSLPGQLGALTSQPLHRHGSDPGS

[21] = Metabolic stability in mouse liver microsomes assessed as half life; type: ADME, Microsome
Cytochrome P450 3A4 [22] = molecular target: T6, Cytochrome P450 3A4; assay: Induction of CYP3A4 in human hepatocytes at 10 uM relative to control; type: ADME, cell-based, Hepatocyte
[23] = Plasma protein binding in mouse assessed as unbound fraction; type: ADME, cell-free
Cytochrome P450 3A4 [24] = molecular target: T6, Cytochrome P450 3A4; assay: Inhibition of human CYP3A4; type: ADME
[25] = Oral bioavailability in male overnight fasted Beagle dog at 5 mg/kg measured 24 hrs post dose by LC-MS/MS analysis; type: ADME, organism-based, Canis lupus familiaris; conditions: in vivo
[26] = Plasma protein binding in dog assessed as unbound fraction; type: ADME, cell-free, Canis lupus familiaris
[27] = molecular target: T1, Nuclear receptor subfamily 1 group I member 3; assay: Antagonist activity at CAR (unknown origin) up to 1.5 uM by mammalian 1-hybrid assay
[28] = Half life in male overnight fasted Beagle dog at 5 mg/kg, po or 1 mg/kg, iv measured 24 hrs post dose by LC-MS/MS analysis; type: ADME, organism-based, Canis lupus familiaris; conditions: in vivo
[29] = Solubility of compound in SGF; type: physicochemical

hERG, sequence (Q12809 whole entry): as above

## C[C@H]1CCCN1C(=O)c1nc(C(=O)NCC(C)(C)O)sc1-c1ccc(C(O)(C(F)(F)F)C(F)(F)F)c(Cl)c1Cl
hERG
  inhibition at 10 µM: 52%
[1]
  solubility: < 4 µM
[2]
  bioavailability: 69%
[3]
  Activity: Not_active
[4]
  Activity: 18%
[5]
  Vdss: 1.5 L/kg
[6]
  IC50: 0.21 µM
Cytochrome P450 2D6
  IC50: 3.8 µM
PXR [7]
  activity at 10 µM: 42%
PXR [8]
  activity at 5 µM: 21%
Cytochrome P450 2C8
  IC50: 18 µM
[9]
  half-life: > 3 h
[10]
  half-life: > 3 h
Cytochrome P450 3A4 [11]
  TDI: Not_active
[12]
  fraction unbound: 0.012
[13]
  fraction unbound: 0.008
[14]
  solubility: < 4 µM
Cytochrome P450 2C19
  IC50: 31 µM
[15]
  IC50: 0.12 µM
[16]
  Vdss: 1.3 L/kg
[17]
  solubility: < 4 µM
[18]
  Activity: Non-toxic
Cytochrome P450 2C9
  IC50: 4.4 µM
[19]
  half-life: 4.1 h
[20]
  IC50: 29.5 µM
[21]
  half-life: > 3 h
Cytochrome P450 3A4 [22]
  Activity: 26%
[23]
  fraction unbound: 0.008
Cytochrome P450 3A4 [24]
  IC50: 20 µM
[25]
  bioavailability: 100%
[26]
  fraction unbound: 0.009
[27]
  Activity: Not_active
[28]
  half-life: 26.2 h
[29]
  solubility: < 4 µM
